Reference: ChEMBL document CHEMBL3351749, “Synthesis, in vitro antimicrobial and cytotoxic activities of new carbazole derivatives of ursolic acid” (Bioorg Med Chem Lett, 2015)
≈ marks a conversion by molar mass, not a printed value.

How the values were obtained:
[1] = test system: Candida albicans; test: Antimicrobial activity against Candida albicans CGMCC2.2086 after 48 hrs by modified microdilution method; format: functional; settings: CGMCC2.2086, 48 h
[2] = test system: Pseudomonas fluorescens; test: Antimicrobial activity against Pseudomonas fluorescens CGMCC1.1828 after 24 hrs by modified microdilution method; format: functional; settings: CGMCC1.1828, 24 h
[3] = test system: Bacillus subtilis; test: Antimicrobial activity against Bacillus subtilis CGMCC1.1162 after 24 hrs by modified microdilution method; format: functional; settings: CGMCC1.1162, 24 h
[4] = Cytotoxicity against human […] cells assessed as cell survival after 48 hrs by MTT assay; format: functional, cell-based
[5] = test system: HepG2; test: Cytotoxicity against human HepG2 cells assessed as cell survival after 48 hrs by MTT assay; format: functional, cell-based; settings: HepG2, 48 h
[6] = test system: Aspergillus niger; test: Antimicrobial activity against Aspergillus niger CGMCC3.316 after 48 hrs by modified microdilution method; format: functional; settings: CGMCC3.316, 48 h
[7] = test system: Staphylococcus aureus; test: Antimicrobial activity against Staphylococcus aureus CGMCC1.1361 after 24 hrs by modified microdilution method; format: functional; settings: CGMCC1.1361, 24 h
[8] = test system: Escherichia coli; test: Antimicrobial activity against Escherichia coli CGMCC1.1571 after 24 hrs by modified microdilution method; format: functional; settings: CGMCC1.1571, 24 h
[9] = test system: Candida tropicalis; test: Antimicrobial activity against Candida tropicalis CGMCC2.3967 after 48 hrs by modified microdilution method; format: functional; settings: CGMCC2.3967, 48 h

| SMILES | MIC [1] [µg/mL] | MIC [2] [µg/mL] | MIC [3] [µg/mL] | IC50 [4] [µM] | IC50 [5] [µM] | MIC [6] [µg/mL] | MIC [7] [µg/mL] | MIC [8] [µg/mL] | MIC [9] [µg/mL] |
| --- | --- | --- | --- | --- | --- | --- | --- | --- | --- |
| CCOc1ccc2[nH]c3c(c2c1)C[C@]1(C)[C@H]2CC=C4[C@@H]5[C@@H](C)[C@H](C)CC[C@]5(C(=O)O)CC[C@@]4(C)[C@]2(C)CC[C@H]1C3(C)C | > 100 | 62.5 (≈ 109 µM) | 62.5 (≈ 109 µM) | 24.5 | 33 | > 100 | 62.5 (≈ 109 µM) | 62.5 (≈ 109 µM) | > 100 |
| COC(=O)[C@]12CC[C@@H](C)[C@H](C)[C@H]1C1=CC[C@@H]3[C@@]4(C)Cc5c([nH]c6ccccc56)C(C)(C)[C@@H]4CC[C@@]3(C)[C@]1(C)CC2 | 62.5 (≈ 115 µM) | 62.5 (≈ 115 µM) | 31.2 (≈ 57.6 µM) | > 100 | > 100 | 62.5 (≈ 115 µM) | 15.6 (≈ 28.8 µM) | 31.2 (≈ 57.6 µM) | 62.5 (≈ 115 µM) |
| COC(=O)[C@]12CC[C@@H](C)[C@H](C)[C@H]1C1=CC[C@@H]3[C@@]4(C)Cc5c([nH]c6ccc(F)cc56)C(C)(C)[C@@H]4CC[C@@]3(C)[C@]1(C)CC2 | 62.5 (≈ 112 µM) | 31.2 (≈ 55.7 µM) | 31.2 (≈ 55.7 µM) | > 100 | 97 | 62.5 (≈ 112 µM) | 15.6 (≈ 27.9 µM) | 31.2 (≈ 55.7 µM) | 62.5 (≈ 112 µM) |
| COC(=O)[C@]12CC[C@@H](C)[C@H](C)[C@H]1C1=CC[C@@H]3[C@@]4(C)Cc5c([nH]c6ccc(Cl)cc56)C(C)(C)[C@@H]4CC[C@@]3(C)[C@]1(C)CC2 | > 100 | 62.5 (≈ 108 µM) | 31.2 (≈ 54.1 µM) | > 100 | > 100 | 62.5 (≈ 108 µM) | 62.5 (≈ 108 µM) | > 100 | > 100 |
| COC(=O)[C@]12CC[C@@H](C)[C@H](C)[C@H]1C1=CC[C@@H]3[C@@]4(C)Cc5c([nH]c6ccc(Br)cc56)C(C)(C)[C@@H]4CC[C@@]3(C)[C@]1(C)CC2 | > 100 | 62.5 (≈ 101 µM) | 62.5 (≈ 101 µM) | > 100 | > 100 | > 100 | 31.2 (≈ 50.3 µM) | > 100 | > 100 |
| COC(=O)[C@]12CC[C@@H](C)[C@H](C)[C@H]1C1=CC[C@@H]3[C@@]4(C)Cc5c([nH]c6ccc(C)cc56)C(C)(C)[C@@H]4CC[C@@]3(C)[C@]1(C)CC2 | > 100 | 62.5 (≈ 112 µM) | 31.2 (≈ 56.1 µM) | > 100 | > 100 | 31.2 (≈ 56.1 µM) | 31.2 (≈ 56.1 µM) | > 100 | 62.5 (≈ 112 µM) |
| COC(=O)[C@]12CC[C@@H](C)[C@H](C)[C@H]1C1=CC[C@@H]3[C@@]4(C)Cc5c([nH]c6ccc(OC)cc56)C(C)(C)[C@@H]4CC[C@@]3(C)[C@]1(C)CC2 | > 100 | > 100 | 31.2 (≈ 54.6 µM) | > 100 | > 100 | > 100 | 31.2 (≈ 54.6 µM) | 62.5 (≈ 109 µM) | > 100 |
| COC(=O)[C@]12CC[C@@H](C)[C@H](C)[C@H]1C1=CC[C@@H]3[C@@]4(C)Cc5c([nH]c6c(OC)cccc56)C(C)(C)[C@@H]4CC[C@@]3(C)[C@]1(C)CC2 | > 100 | > 100 | 31.2 (≈ 54.6 µM) | > 100 | > 100 | > 100 | 31.2 (≈ 54.6 µM) | > 100 | > 100 |
| CCOc1ccc2[nH]c3c(c2c1)C[C@]1(C)[C@H]2CC=C4[C@@H]5[C@@H](C)[C@H](C)CC[C@]5(C(=O)OC)CC[C@@]4(C)[C@]2(C)CC[C@H]1C3(C)C | > 100 | 62.5 (≈ 107 µM) | 31.2 (≈ 53.3 µM) | > 100 | > 100 | > 100 | 31.2 (≈ 53.3 µM) | > 100 | > 100 |
| C[C@H]1[C@H](C)CC[C@]2(C(=O)NCCCN(C)C)CC[C@]3(C)C(=CC[C@@H]4[C@@]5(C)Cc6c([nH]c7ccccc67)C(C)(C)[C@@H]5CC[C@]43C)[C@H]12 | 31.2 (≈ 51 µM) | 31.2 (≈ 51 µM) | 7.8 (≈ 12.7 µM) | 2.12 | 2.78 | 31.2 (≈ 51 µM) | 15.6 (≈ 25.5 µM) | 15.6 (≈ 25.5 µM) | 62.5 (≈ 102 µM) |
| C[C@H]1[C@H](C)CC[C@]2(C(=O)NCCCN(C)C)CC[C@]3(C)C(=CC[C@@H]4[C@@]5(C)Cc6c([nH]c7ccc(F)cc67)C(C)(C)[C@@H]5CC[C@]43C)[C@H]12 | 31.2 (≈ 49.5 µM) | 7.8 (≈ 12.4 µM) | 3.9 (≈ 6.19 µM) | 4.6 | 6.03 | 31.2 (≈ 49.5 µM) | 7.8 (≈ 12.4 µM) | 7.8 (≈ 12.4 µM) | 31.2 (≈ 49.5 µM) |
| C[C@H]1[C@H](C)CC[C@]2(C(=O)NCCCN(C)C)CC[C@]3(C)C(=CC[C@@H]4[C@@]5(C)Cc6c([nH]c7ccc(Cl)cc67)C(C)(C)[C@@H]5CC[C@]43C)[C@H]12 | 62.5 (≈ 96.7 µM) | 31.2 (≈ 48.3 µM) | 15.6 (≈ 24.1 µM) | 2.78 | 4.02 | 31.2 (≈ 48.3 µM) | 7.8 (≈ 12.1 µM) | 15.6 (≈ 24.1 µM) | 62.5 (≈ 96.7 µM) |
| C[C@H]1[C@H](C)CC[C@]2(C(=O)NCCCN(C)C)CC[C@]3(C)C(=CC[C@@H]4[C@@]5(C)Cc6c([nH]c7ccc(Br)cc67)C(C)(C)[C@@H]5CC[C@]43C)[C@H]12 | > 100 | 15.6 (≈ 22.6 µM) | 31.2 (≈ 45.2 µM) | 6.8 | 5.65 | 62.5 (≈ 90.5 µM) | 31.2 (≈ 45.2 µM) | 31.2 (≈ 45.2 µM) | 62.5 (≈ 90.5 µM) |
| COc1ccc2[nH]c3c(c2c1)C[C@]1(C)[C@H]2CC=C4[C@@H]5[C@@H](C)[C@H](C)CC[C@]5(C(=O)NCCCN(C)C)CC[C@@]4(C)[C@]2(C)CC[C@H]1C3(C)C | 62.5 (≈ 97.4 µM) | 31.2 (≈ 48.6 µM) | 15.6 (≈ 24.3 µM) | 12.8 | 11.4 | 31.2 (≈ 48.6 µM) | 31.2 (≈ 48.6 µM) | 31.2 (≈ 48.6 µM) | 62.5 (≈ 97.4 µM) |
| COc1cccc2c3c([nH]c12)C(C)(C)[C@@H]1CC[C@]2(C)[C@H](CC=C4[C@@H]5[C@@H](C)[C@H](C)CC[C@]5(C(=O)NCCCN(C)C)CC[C@]42C)[C@@]1(C)C3 | > 100 | 31.2 (≈ 48.6 µM) | 31.2 (≈ 48.6 µM) | 36.2 | 88.8 | > 100 | 62.5 (≈ 97.4 µM) | 31.2 (≈ 48.6 µM) | > 100 |
| CCOc1ccc2[nH]c3c(c2c1)C[C@]1(C)[C@H]2CC=C4[C@@H]5[C@@H](C)[C@H](C)CC[C@]5(C(=O)NCCCN(C)C)CC[C@@]4(C)[C@]2(C)CC[C@H]1C3(C)C | > 100 | 62.5 (≈ 95.3 µM) | 31.2 (≈ 47.6 µM) | 4.88 | 6.25 | > 100 | 62.5 (≈ 95.3 µM) | 31.2 (≈ 47.6 µM) | > 100 |
| NCC[C@H](O)C(=O)N[C@@H]1C[C@H](N)[C@@H](O[C@H]2O[C@H](CN)[C@@H](O)[C@H](O)[C@H]2O)[C@H](O)[C@H]1O[C@H]1O[C@H](CO)[C@@H](O)[C@H](N)[C@H]1O [AMIKACIN] |  | 0.9 (≈ 1.54 µM) | 0.9 (≈ 1.54 µM) |  |  |  | 0.9 (≈ 1.54 µM) | 1.9 (≈ 3.24 µM) |  |
| COc1cccc2c1C(=O)c1c(O)c3c(c(O)c1C2=O)C[C@@](O)(C(=O)CO)C[C@@H]3O[C@H]1C[C@H](N)[C@H](O)[C@H](C)O1 [DOXORUBICIN] |  |  |  | 0.62 | 0.77 |  |  |  |  |
| CC(=O)N1CCN(c2ccc(OCC3COC(Cn4ccnc4)(c4ccc(Cl)cc4Cl)O3)cc2)CC1 (stereo not drawn) [KETOCONAZOLE] | 3.9 (≈ 7.34 µM) |  |  |  |  | 7.8 (≈ 14.7 µM) |  |  | 3.9 (≈ 7.34 µM) |
